Results on 28 molecules are retold here after patent US8901118B2, “Compounds and methods for kinase modulation, and indications therefor” (Plexxikon Inc., priority 2010, dated 2014).

In one test the target is CYP2C19 (Homo sapiens, UniProt P33261). The test is described as follows: CYP2C19 inhibition (fluorescent substrate CEC). The format is in vitro ADME. Conditions: read-out: Cyp IC50 2C19. Summed up: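 Compounds, serially diluted 1:1 over 10 points in NADPH-regenerating cofactor mix with 5% acetonitrile, were preincubated 10 min at 37 °C, then run with enzyme and substrate at 37 °C (CYP1A2 15 min; CYP2C9 45 min; CYP2C19, CYP2D6 30 min). Product fluorescence gave IC50s.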

In the next test the target is TrkA kinase (Homo sapiens, UniProt P04629). The test is described as follows: TrkA kinase biochemical activity assay (AlphaScreen). The following applies: 100 μM ATP; read-out: Biochemical Inhibition IC50 TrkA. The method, boiled down: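 Recombinant TrkA with 30 nM biotin-(E4Y)10 and 100 μM ATP in 25 mM Hepes pH 7.5, 10 mM MnCl2, 5% DMSO, 40 min at room temperature. Phosphorylation read by AlphaScreen (streptavidin donor, PY20 acceptor beads); IC50 from signal vs compound concentration. TrkC run similarly.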
(Alpha assays give light when donor and acceptor beads are brought close together.)

Sequence of CYP2C19 (P33261 whole entry): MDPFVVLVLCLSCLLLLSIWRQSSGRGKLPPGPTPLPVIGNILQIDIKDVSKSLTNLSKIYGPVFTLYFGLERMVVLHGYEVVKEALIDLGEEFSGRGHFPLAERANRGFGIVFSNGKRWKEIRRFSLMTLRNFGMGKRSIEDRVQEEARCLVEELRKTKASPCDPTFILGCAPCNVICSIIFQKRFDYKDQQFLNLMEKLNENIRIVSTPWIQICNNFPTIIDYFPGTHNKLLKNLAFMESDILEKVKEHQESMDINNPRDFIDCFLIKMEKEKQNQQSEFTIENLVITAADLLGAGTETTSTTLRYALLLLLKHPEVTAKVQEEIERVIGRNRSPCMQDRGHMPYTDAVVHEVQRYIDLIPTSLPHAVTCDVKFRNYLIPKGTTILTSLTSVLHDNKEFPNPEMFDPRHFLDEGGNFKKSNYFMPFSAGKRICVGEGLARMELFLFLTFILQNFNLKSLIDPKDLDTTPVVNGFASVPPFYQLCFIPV
Sequence of TrkA kinase (P04629 33-796): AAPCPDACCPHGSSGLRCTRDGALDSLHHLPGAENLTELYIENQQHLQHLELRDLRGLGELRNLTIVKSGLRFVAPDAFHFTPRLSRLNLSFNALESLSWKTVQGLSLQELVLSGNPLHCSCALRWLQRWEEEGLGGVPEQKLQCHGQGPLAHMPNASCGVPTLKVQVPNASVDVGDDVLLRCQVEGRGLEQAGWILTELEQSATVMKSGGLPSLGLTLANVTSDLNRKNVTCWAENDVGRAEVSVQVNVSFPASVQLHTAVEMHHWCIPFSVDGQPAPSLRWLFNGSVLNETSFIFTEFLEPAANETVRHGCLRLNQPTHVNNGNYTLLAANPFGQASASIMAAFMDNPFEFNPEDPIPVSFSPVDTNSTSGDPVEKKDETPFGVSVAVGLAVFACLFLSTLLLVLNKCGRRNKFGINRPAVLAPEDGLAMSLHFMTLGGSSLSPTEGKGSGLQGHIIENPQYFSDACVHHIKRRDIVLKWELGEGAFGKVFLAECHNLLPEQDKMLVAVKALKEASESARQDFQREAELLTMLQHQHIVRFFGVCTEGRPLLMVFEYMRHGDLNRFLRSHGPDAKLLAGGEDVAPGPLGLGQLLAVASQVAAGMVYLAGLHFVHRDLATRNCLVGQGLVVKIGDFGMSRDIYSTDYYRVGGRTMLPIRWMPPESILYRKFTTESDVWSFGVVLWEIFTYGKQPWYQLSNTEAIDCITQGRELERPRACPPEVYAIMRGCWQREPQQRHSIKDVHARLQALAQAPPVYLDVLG

The term IC50 denotes the point on the concentration scale where inhibition reaches its midpoint. `COc1ccc(Nc2ccc(C(=O)c3c[nH]c4ncc(C)cc34)c(F)n2)cn1` [Compound P-3040, [2-Fluoro-6-(6-methoxy-pyridin-3-ylamino)-pyridin-3-yl]-(5-methyl-1H-pyrrolo[2,3-b]pyridin-3-yl)-methanone]: the half-inhibitory concentration (IC50) is over 10 µM on CYP2C19 and under 0.01 µM at TrkA kinase.
On the same counts, the results for `Cc1cnc2[nH]cc(Cc3ccc(Nc4ccc(C)nc4)nc3F)c2c1` [Compound P-3041, [6-Fluoro-5-(5-methyl-1H-pyrrolo[2,3-b]pyridin-3-ylmethyl)-pyridin-2-yl]-(6-methyl-pyridin-3-yl)-amine] are over 10 µM and under 1 µM.
For the molecule `Cc1cnc2[nH]cc(C(=O)c3ccc(Nc4ccc(C)nc4)nc3F)c2c1` [Compound P-3043, [2-Fluoro-6-(6-methyl-pyridin-3-ylamino)-pyridin-3-yl]-(5-methyl-1H-pyrrolo[2,3-b]pyridin-3-yl)-methanone], the IC50 was over 10 µM on CYP2C19 and under 0.1 µM on TrkA kinase.
For `Cc1ccc(Nc2ccc(C(=O)c3c[nH]c4ncc(Cl)cc34)c(F)n2)cn1` [Compound P-3044, (5-Chloro-1H-pyrrolo[2,3-b]pyridin-3-yl)-[2-fluoro-6-(6-methyl-pyridin-3-ylamino)-pyridin-3-yl]-methanone], the results for the half-maximal inhibitory concentration (IC50) at CYP2C19 and at TrkA kinase were over 10 µM and under 0.1 µM, respectively.
On the same counts, the results for `CCc1ccc(Nc2ccc(Cc3c[nH]c4ncc(C)cc34)c(F)n2)cn1` [Compound P-3048, (6-Ethyl-pyridin-3-yl)-[6-fluoro-5-(5-methyl-1H-pyrrolo[2,3-b]pyridin-3-ylmethyl)-pyridin-2-yl]-amine] are under 5 µM and under 0.01 µM.
The like results for `CCc1ccc(Nc2ccc(C(=O)c3c[nH]c4ncc(C)cc34)c(F)n2)cn1` [Compound P-3049, [6-(6-Ethyl-pyridin-3-ylamino)-2-fluoro-pyridin-3-yl]-(5-methyl-1H-pyrrolo[2,3-b]pyridin-3-yl)-methanone] were, in that order, over 10 µM and under 0.01 µM.
For `Cc1cnc2[nH]cc(Cc3ccc(Nc4ccc(C5CC5)nc4)nc3F)c2c1` [Compound P-3050, (6-Cyclopropyl-pyridin-3-yl)-[6-fluoro-5-(5-methyl-1H-pyrrolo[2,3-b]pyridin-3-ylmethyl)-pyridin-2-yl]-amine], the figures for the IC50 on CYP2C19 and at TrkA kinase were over 10 µM and under 0.1 µM, respectively.
On the same counts, the results for `Cc1cnc2[nH]cc(C(=O)c3ccc(Nc4ccc(C5CC5)nc4)nc3F)c2c1` [Compound P-3051, [6-(6-Cyclopropyl-pyridin-3-ylamino)-2-fluoro-pyridin-3-yl]-(5-methyl-1H-pyrrolo[2,3-b]pyridin-3-yl)-methanone] are over 10 µM and under 0.01 µM.
For the molecule `O=C(c1ccc(Nc2ccc(C3CC3)nc2)nc1F)c1c[nH]c2ncccc12` [Compound P-3052, [6-(6-Cyclopropyl-pyridin-3-ylamino)-2-fluoro-pyridin-3-yl]-(1H-pyrrolo[2,3-b]pyridin-3-yl)-methanone], the values for the IC50 on CYP2C19 and on TrkA kinase were 5 to 10 µM and under 0.01 µM, respectively.
For the molecule `Fc1nc(Nc2ccc(C3CC3)nc2)ccc1Cc1c[nH]c2ncccc12` [Compound P-3053, (6-Cyclopropyl-pyridin-3-yl)-[6-fluoro-5-(1H-pyrrolo[2,3-b]pyridin-3-ylmethyl)-pyridin-2-yl]-amine], the IC50 at CYP2C19 was over 10 µM; at TrkA kinase it was under 0.1 µM.
For the molecule `COc1ccc(Nc2ccc(Cc3c[nH]c4ncnc(OC)c34)c(F)n2)cn1` [Compound P-4001, [6-Fluoro-5-(4-methoxy-7H-pyrrolo[2,3-d]pyrimidin-5-ylmethyl)-pyridin-2-yl]-(6-methoxy-pyridin-3-yl)-amine], the IC50 on CYP2C19 is under 5 µM; on TrkA kinase, under 0.1 µM.
For `COc1ccc(Nc2ccc(Cc3c[nH]c4ncnc(C)c34)c(F)n2)cn1` [Compound P-4002, [6-Fluoro-5-(4-methyl-7H-pyrrolo[2,3-d]pyrimidin-5-ylmethyl)-pyridin-2-yl]-(6-methoxy-pyridin-3-yl)-amine], the half-inhibitory concentration (IC50) at CYP2C19 is over 10 µM; at TrkA kinase, under 0.1 µM.
As to `COc1ncnc2[nH]cc(Cc3ccc(Nc4ccc(Cl)nc4)nc3F)c12` [Compound P-4003, (6-Chloro-pyridin-3-yl)-[6-fluoro-5-(4-methoxy-7H-pyrrolo[2,3-d]pyrimidin-5-ylmethyl)-pyridin-2-yl]-amine], the IC50 on CYP2C19 is over 10 µM; on TrkA kinase it was under 1 µM.
As for `COc1ncnc2[nH]cc(Cc3ccc(Nc4ccc(C5CC5)nc4)nc3F)c12` [Compound P-4004, (6-Cyclopropyl-pyridin-3-yl)-[6-fluoro-5-(4-methoxy-7H-pyrrolo[2,3-d]pyrimidin-5-ylmethyl)-pyridin-2-yl]-amine], the values for the 50% inhibitory concentration (IC50) on CYP2C19 and at TrkA kinase were over 10 µM and under 0.1 µM, respectively.
On the same counts, the results for `CCOc1ccc(Nc2ccc(Cc3c[nH]c4ncnc(OC)c34)c(F)n2)cn1` [Compound P-4005, (6-Ethoxy-pyridin-3-yl)-[6-fluoro-5-(4-methoxy-7H-pyrrolo[2,3-d]pyrimidin-5-ylmethyl)-pyridin-2-yl]-amine] are over 10 µM and under 0.1 µM.
The like results for `CCOc1ccc(Nc2ccc(Cc3c[nH]c4ncnc(C)c34)c(F)n2)cn1` [Compound P-4006, (6-Ethoxy-pyridin-3-yl)-[6-fluoro-5-(4-methyl-7H-pyrrolo[2,3-d]pyrimidin-5-ylmethyl)-pyridin-2-yl]-amine] were, in that order, over 10 µM and under 0.1 µM.
On the same counts, the results for `CCc1ccc(Nc2ccc(Cc3c[nH]c4ncnc(OC)c34)c(F)n2)cn1` [Compound P-4007, (6-Ethyl-pyridin-3-yl)-[6-fluoro-5-(4-methoxy-7H-pyrrolo[2,3-d]pyrimidin-5-ylmethyl)-pyridin-2-yl]-amine] are over 10 µM and under 0.01 µM.
`CCOc1ccc(Nc2ccc(Cc3c[nH]c4ncnc(OCCOC)c34)c(F)n2)cn1` [Compound P-4008, (6-Ethoxy-pyridin-3-yl)-{6-fluoro-5-[4-(2-methoxy-ethoxy)-7H-pyrrolo[2,3-d]pyrimidin-5-ylmethyl]-pyridin-2-yl}-amine]: the concentration for half-maximal inhibition (IC50) at CYP2C19 was over 10 µM; at TrkA kinase, under 0.01 µM.
Take `CCc1ccc(Nc2ccc(Cc3c[nH]c4ncnc(C)c34)c(F)n2)cn1` [Compound P-4009, (6-Ethyl-pyridin-3-yl)-[6-fluoro-5-(4-methyl-7H-pyrrolo[2,3-d]pyrimidin-5-ylmethyl)-pyridin-2-yl]-amine]: the IC50 is 5 to 10 µM at CYP2C19 and under 0.01 µM on TrkA kinase.
On the same counts, the results for `COc1ncnc2[nH]cc(Cc3ccc(Nc4ccc(C)nc4)nc3F)c12` [Compound P-4010, [6-Fluoro-5-(4-methoxy-7H-pyrrolo[2,3-d]pyrimidin-5-ylmethyl)-pyridin-2-yl]-(6-methyl-pyridin-3-yl)-amine] are over 10 µM and under 1 µM.
The like results for `CCn1cc(Nc2ccc(Cc3c[nH]c4ncnc(OC)c34)c(F)n2)cn1` [Compound P-4011, (1-Ethyl-1H-pyrazol-4-yl)-[6-fluoro-5-(4-methoxy-7H-pyrrolo[2,3-d]pyrimidin-5-ylmethyl)-pyridin-2-yl]-amine] were, in that order, over 10 µM and under 1 µM.
`CCOc1ncnc2[nH]cc(Cc3ccc(Nc4cnn(CC)c4)nc3F)c12` [Compound P-4012, [5-(4-Ethoxy-7H-pyrrolo[2,3-d]pyrimidin-5-ylmethyl)-6-fluoro-pyridin-2-yl]-(1-ethyl-1H-pyrazol-4-yl)-amine]: the half-maximal inhibitory concentration (IC50) on CYP2C19 is over 10 µM; on TrkA kinase it was under 0.1 µM.
For `CCn1cc(Nc2ccc(Cc3c[nH]c4ncnc(C)c34)c(F)n2)cn1` [Compound P-4013, (1-Ethyl-1H-pyrazol-4-yl)-[6-fluoro-5-(4-methyl-7H-pyrrolo[2,3-d]pyrimidin-5-ylmethyl)-pyridin-2-yl]-amine], the 50% inhibitory concentration (IC50) at CYP2C19 was over 10 µM; on TrkA kinase it was under 1 µM.
Turning to `CCn1cc(Nc2ccc(Cc3c[nH]c4ncnc(OCCOC)c34)c(F)n2)cn1` [Compound P-4014, (1-Ethyl-1H-pyrazol-4-yl)-{6-fluoro-5-[4-(2-methoxy-ethoxy)-7H-pyrrolo[2,3-d]pyrimidin-5-ylmethyl]-pyridin-2-yl}-amine], the IC50 on CYP2C19 is over 10 µM; at TrkA kinase it was over 1 µM.
The like results for `COCCOc1ncnc2[nH]cc(Cc3ccc(Nc4ccc(C)nc4)nc3F)c12` [Compound P-4015, {6-Fluoro-5-[4-(2-methoxy-ethoxy)-7H-pyrrolo[2,3-d]pyrimidin-5-ylmethyl]-pyridin-2-yl}-(6-methyl-pyridin-3-yl)-amine] were, in that order, over 10 µM and over 1 µM.
For the molecule `CCc1ccc(Nc2ccc(Cc3c[nH]c4ncnc(OCCOC)c34)c(F)n2)cn1` [Compound P-4016, (6-Ethyl-pyridin-3-yl)-{6-fluoro-5-[4-(2-methoxy-ethoxy)-7H-pyrrolo[2,3-d]pyrimidin-5-ylmethyl]-pyridin-2-yl}-amine], the results for the half-maximal inhibitory concentration (IC50) on CYP2C19 and on TrkA kinase were over 10 µM and under 0.01 µM, respectively.
For `CCOc1ncnc2[nH]cc(Cc3ccc(Nc4ccc(C)nc4)nc3F)c12` [Compound P-4017, [5-(4-Ethoxy-7H-pyrrolo[2,3-d]pyrimidin-5-ylmethyl)-6-fluoro-pyridin-2-yl]-(6-methyl-pyridin-3-yl)-amine], the figures for the IC50 at CYP2C19 and on TrkA kinase were over 10 µM and under 0.1 µM, respectively.
For `CCOc1ncnc2[nH]cc(Cc3ccc(Nc4ccc(OC)nc4)nc3F)c12` [Compound P-4018, [5-(4-Ethoxy-7H-pyrrolo[2,3-d]pyrimidin-5-ylmethyl)-6-fluoro-pyridin-2-yl]-(6-methoxy-pyridin-3-yl)-amine], the figures for the IC50 on CYP2C19 and on TrkA kinase were under 5 µM and under 0.1 µM, respectively.
